Laboratory results published in the NIST ThermoML archive (doi:10.1021/je900691n).

Assay: xn = mol fraction of the nth substance listed
Conditions: 308.15 K, Liquid, Pycnometric method

COC(=O)OC [dimethyl carbonate] + O=C=O
Conditions | mass density [kg/m3]
6160 kPa, x1 = 0.1484 | 926
6420 kPa, x1 = 0.118 | 904
6750 kPa, x1 = 0.086 | 864
6760 kPa, x1 = 0.1484 | 931
6900 kPa, x1 = 0.118 | 909
7160 kPa, x1 = 0.0481 | 787
7260 kPa, x1 = 0.1484 | 936
7520 kPa, x1 = 0.0242 | 697
7620 kPa, x1 = 0.0481 | 800
7630 kPa, x1 = 0.0242 | 705
7680 kPa, x1 = 0.118 | 917
7730 kPa, x1 = 0.1484 | 939
7780 kPa, x1 = 0.0242 | 718
7940 kPa, x1 = 0.086 | 881
7990 kPa, x1 = 0.0242 | 731
8200 kPa, x1 = 0.118 | 922
8230 kPa, x1 = 0.0242 | 744
8230 kPa, x1 = 0.0481 | 816
8250 kPa, x1 = 0.1484 | 943
8480 kPa, x1 = 0.0242 | 755
8730 kPa, x1 = 0.086 | 890
8740 kPa, x1 = 0.0481 | 827
8780 kPa, x1 = 0.1484 | 947
8870 kPa, x1 = 0.0242 | 770
9030 kPa, x1 = 0.118 | 929
9180 kPa, x1 = 0.0242 | 780
9250 kPa, x1 = 0.0481 | 837
9260 kPa, x1 = 0.1484 | 950
9630 kPa, x1 = 0.086 | 900
9640 kPa, x1 = 0.0242 | 792
9670 kPa, x1 = 0.118 | 935
9690 kPa, x1 = 0.0481 | 844
9740 kPa, x1 = 0.1484 | 953
9920 kPa, x1 = 0.0242 | 799
10120 kPa, x1 = 0.0481 | 852
10130 kPa, x1 = 0.086 | 905
10180 kPa, x1 = 0.0242 | 806
10230 kPa, x1 = 0.1484 | 956
10530 kPa, x1 = 0.0481 | 858
10600 kPa, x1 = 0.0242 | 814
10600 kPa, x1 = 0.118 | 942
10770 kPa, x1 = 0.1484 | 960
10930 kPa, x1 = 0.086 | 913
11010 kPa, x1 = 0.0242 | 822
11080 kPa, x1 = 0.0481 | 865
11180 kPa, x1 = 0.118 | 946
11230 kPa, x1 = 0.1484 | 962
11290 kPa, x1 = 0.0242 | 828
11340 kPa, x1 = 0.086 | 917
11500 kPa, x1 = 0.0481 | 871
11740 kPa, x1 = 0.1484 | 966
11750 kPa, x1 = 0.0242 | 836
11800 kPa, x1 = 0.086 | 921
12020 kPa, x1 = 0.0242 | 839
12040 kPa, x1 = 0.0481 | 878
12210 kPa, x1 = 0.086 | 924
12230 kPa, x1 = 0.1484 | 969
12300 kPa, x1 = 0.118 | 954
12420 kPa, x1 = 0.0242 | 846
12530 kPa, x1 = 0.0481 | 883
12740 kPa, x1 = 0.1484 | 971
12780 kPa, x1 = 0.0242 | 852
12850 kPa, x1 = 0.086 | 929
12970 kPa, x1 = 0.0481 | 888
13270 kPa, x1 = 0.1484 | 975
13350 kPa, x1 = 0.086 | 934
13660 kPa, x1 = 0.0481 | 895
13820 kPa, x1 = 0.1484 | 978
13850 kPa, x1 = 0.086 | 937
14140 kPa, x1 = 0.086 | 939
14270 kPa, x1 = 0.1484 | 980
14460 kPa, x1 = 0.0481 | 903
